What was measured:
[1] = Cytotoxicity MTT assay in Huh7 cells; format: cell-based; conditions: human
[2] = test system: ZIKV Puerto Rico strain (PRVABC59); test: ZIKV CPE MTS assay in Vero cells; format: cell-based, Zika virus; conditions: Zika virus; for IC50: 96 h, read-out: ZIKV CPE MTS Assay IC50 (μM) Vero; for inhibition at 20 µM / inhibition at 10 µM: read-out: ZIKV CPE MTS Assay percentage of inhibition at the concentration, Vero
Experimental: (§1) […] Cell cytopathic effect (CPE) MTS assay (CellTiter 96@k) AQueous One Solution Cell Proliferation Promega kit, Promega) was measured four (Vero) or five (U251 or Huh7) days after compound addition to determine the levels of replication inhibition.

[3] = Cytotoxicity MTT assay in Vero cells; format: cell-based; conditions: African green monkey
Source text: (§2) The toxicity of the compounds can be assessed in Vero, human PBM, CEM (human lymphoblastoid), and can be assessed in MT-2, and HepG2 cells, as described previously (see Schinazi R. F., Sommadossi J.-P., Saalmann V., Cannon D. L., Xie M.-Y., Hart G. C., Smith G. A. & Hahn E. F. Antimicrob. Agents Chemother. 1990, 34, 1061-67). Cycloheximide can be included as positive cytotoxic control, and untreated cells exposed to solvent can be included as negative controls. The cytotoxicity (IC50) can be obtained from the concentration-response curve using the median effective method described previously (see Chou T.-C. & Talalay P. Adv. Enzyme Regul. 1984, 22, 27-55; Belen'kii M. S. & Schinazi R. F. Antiviral Res. 1994, 25, 1-11).

[4] = Cytotoxicity MTT assay in HepG2 cells; format: cell-based; conditions: human
Source text: as §2

[5] = test system: ZIKV Puerto Rico strain (PRVABC59); test: ZIKV CPE MTS assay in human neuroblastoma (U251) cells; format: cell-based, Zika virus; conditions: Zika virus; for IC50: U-251, 120 h, read-out: ZIKV CPE MTS Assay IC50 (μM) H251
Experimental: as §1

[6] = Cytotoxicity MTT assay in CEM cells; format: cell-based; conditions: human
Source text: as §2

[7] = Cytotoxicity MTT assay in PBM cells; format: cell-based; conditions: human
Experimental: v) Cellular Toxicity Assays: Nucleoside and nucleoside monophosphate prodrugs can be evaluated for their potential toxic effects on P4/R5 cells, MT-2 cells and uninfected PHA-stimulated human PBM cell. Log-phase P4/R5, MT-2, and PHA-stimulated human PBM cells can be seeded at 5×10^3 to 5×10^4 cells/well in 96-well cell culture plates containing 10-fold serial dilutions of the test drug. The cultures can be incubated for 2-4 days, after which 3-(4,5-dimethylthiazol-2-yl)-2,5-diphenyltetrazolium bromide (MTT) dye solution (Promega, Madison, WI) can be added to each well and incubated overnight. The reaction can be stopped with stop solubilization solution (Promega, Madison, WI) and plates can be read at a wavelength of 570 nm. The median 50% cytotoxic concentration (CC50) can be determined from the concentration-response curve using the median effect method.
as §2

[8] = test system: ZIKV Puerto Rico strain (PRVABC59); test: ZIKV CPE MTS assay in Huh7 cells; format: cell-based, Zika virus; conditions: Zika virus; for IC50: Huh-7, 120 h, read-out: ZIKV CPE MTS Assay IC50 (μM) Huh7
Experimental: as §1

Zika virus = test: Zika-infected Vero cell model, 4G2 antibody staining, FACS; format: cell-based; conditions: 72 h, MOI 0.1, Day 3, FACS, read-out: percent inhibition of Zika-infected Vero cells
Experimental: At 8 AM on Day 1, 10,000 cells/well were plated in a 96 well plate. At 2 PM, MOI 0.1 Zika virus was added. At 3 PM, virus inoculum was removed, and various concentrations of drug-containing medium was added, at multiple concentrations (duplicates of […]).
On Day 3, supernatants were harvested, and frozen for later RT-PCR confirmation. Cells were harvested, stained with 4G2 antibody, and intracellular virus was quantified with FACS. The EC50/EC90 were then calculated.
Concentrations of 10, 1, 0.1, 0.01 μM were assayed in duplicate for 10 total drugs. All cells were harvested, but the only cells stained with antibody were those contacted with the following compounds, in the listed concentrations:
All gates were established using uninfected cells as a control, and were maintained for all test conditions.

DENV-2 [9] = test: DENV-2 Huh-7 infectious assay; format: cell-based; conditions: Dengue virus, DENV2, Huh-7
DENV-2 [10] = test: DENV-2 VERO infectious assay; format: cell-based, Dengue virus; conditions: Dengue virus, DENV2, Vero
[11] = Vero cells, MOI=0.01, four days
[12] = U-251, read-out: ZIKV CPE MTS Assay percentage of inhibition at the concentration, H251

Row | Compound | IC50 [1] | IC50 [3] | IC50 ([2]; Vero) | inhibition at 20 µM ([2]; Vero) | IC50 [5] | inhibition at 20 µM [5, 12] | IC50 [6] | IC50 ([7]; PBM cells) | IC50 [8] | also measured
1 | CC1(O)C(O)[C@@H](CO)O[C@H]1n1ccc(N)nc1=O (stereo partly drawn) | > 100 µM | > 100 µM |  |  |  |  |  |  |  | IC50 [2, 11]: 9.2 µM; IC50 [4]: 59.1 µM; IC50 ([5]; H251 cells, MOI=0.5, five days): 16.3 µM; IC50 ([6]; CEM lymphoblastoid cells): 84.3 µM; IC50 ([7]; PHA-stimulated human PBM cells): 65.4 µM; IC50 ([8]; Huh7 cells, MOI=0.5, five days): 9.3 µM
2 | C[C@@]1(O)C(O)[C@@H](CO)O[C@H]1n1cnc2c(N)ncnc21 (stereo partly drawn) |  |  |  |  |  |  |  |  |  | IC50 [2, 11]: 20 µM; IC50 ([5]; H251 cells, MOI=0.5, five days): > 20 µM; inhibition at 20 µM ([5]; U-251, H251 cells, at 20 μM, read-out: ZIKV CPE MTS Assay percentage of inhibition at the concentration, H251): 24%; IC50 ([8]; Huh7 cells, MOI=0.5, five days): 3.4 µM
3 | C[C@@]1(O)C(n2cnc3c(N)ncnc32)O[C@H](CO)[C@@H]1O (stereo partly drawn) |  | > 100 µM |  |  |  |  |  |  |  | IC50 [2, 11]: 13.1 µM; IC50 ([5]; H251 cells, MOI=0.5, five days): > 10 µM; inhibition at 10 µM ([5]; U-251, H251 cells, at 10 μM, read-out: ZIKV CPE MTS Assay percentage of inhibition at the concentration, H251): 37%; IC50 ([6]; CEM lymphoblastoid cells): > 100 µM; IC50 ([7]; PHA-stimulated human PBM cells): > 100 µM; IC50 ([8]; Huh7 cells, MOI=0.5, five days): 1.7 µM
4 | CCOC(=O)[C@H](C)NP(=O)(OCC1C(n2cnc3c(N)cc(N)nc32)C[C@](C)(O)[C@@H]1O)Oc1ccccc1 (stereo partly drawn) | > 100 µM | > 100 µM | > 20 µM | 1% | > 20 µM | 42% | > 100 µM | > 100 µM | 2.9 µM | 
5 | CCOC(=O)[C@@H](C)NP(=O)(OC[C@H]1O[C@@H](n2ccc(NO)nc2=O)C(C)(O)C1O)Oc1ccccc1 (stereo partly drawn) | > 100 µM | > 100 µM | > 20 µM | 1% | > 20 µM | 27% | > 100 µM | > 100 µM | 5 µM | 
6 | CCOC(=O)[C@H](C)NP(=O)(OC[C@H]1O[C@@H](n2cnc3c(N)nc(N=[N+]=[N-])nc32)C(C)(O)C1O)Oc1ccccc1 (stereo partly drawn) | > 100 µM | > 100 µM | > 20 µM | 3% | > 20 µM | 34% | > 100 µM | > 100 µM | < 20 µM | IC50 [4]: > 100 µM; inhibition at 20 µM ([8]; Huh-7, read-out: ZIKV CPE MTS Assay percentage of inhibition at the concentration, Huh7): 88%
7 | CCOC(=O)[C@H](C)NP(=O)(OCC1O[C@@H](n2cnc3c(NOC)nc(N)nc32)[C@](C)(O)[C@@H]1O)Oc1ccccc1 (stereo partly drawn) | 94 µM | > 100 µM | > 20 µM | 19% | > 20 µM | 43% | 28 µM | > 100 µM | 4.7 µM | 
8 | CC(C)OC(=O)[C@H](C)NP(=O)(OC[C@H]1O[C@@H](n2ccc(NO)nc2=O)C(C)(O)C1O)Oc1ccccc1 (stereo partly drawn) | > 100 µM | > 100 µM | > 20 µM | 1% | > 20 µM | 3% | > 100 µM | > 100 µM | 0.8 µM | 
9 | CC(C)OC(=O)[C@H](C)NP(=O)(OCC1O[C@@H](n2cnc3c(N=[N+]=[N-])nc(N)nc32)[C@](C)(O)[C@@H]1O)Oc1ccccc1 (stereo partly drawn) | > 100 µM | > 100 µM | > 20 µM | 1% | > 20 µM | 20% | > 100 µM | > 100 µM | 11.5 µM | 
10 | CC(C)OC(=O)[C@H](C)NP(=O)(OCC1O[C@@H](n2cnc3c(N)nc(N)nc32)[C@](C)(O)[C@@H]1O)Oc1ccccc1 (stereo partly drawn) | > 100 µM | > 100 µM | > 20 µM | 1% | > 20 µM | 25% | > 100 µM | > 100 µM | 3.7 µM | 
11 | CC(C)OC(=O)[C@H](C)NP(=O)(OC[C@H]1O[C@@H](n2cc(F)c3c(N)ncnc32)[C@](C)(O)C1O)Oc1ccccc1 (stereo partly drawn) |  | > 100 µM | > 20 µM |  | > 10 µM |  | 92.1 µM | 34.7 µM | 7.6 µM | inhibition at 10 µM [5, 12]: 1%
12 | CC(C)OC(=O)[C@H](C)N[P@](=O)(OC[C@H]1O[C@@H](n2ccc(=O)[nH]c2=O)[C@](C)(F)[C@@H]1O)Oc1ccccc1 | 49.3 µM | > 100 µM | > 20 µM | 1% | > 20 µM | 17% | > 100 µM | > 100 µM | 5.7 µM | 
13 | CC(C)OC(=O)[C@H](C)NP(=O)(OC[C@H]1O[C@@H](n2ccc(=O)[nH]c2=O)[C@@](F)(Cl)C1O)Oc1ccccc1 (stereo partly drawn) |  | > 100 µM | < 10 µM |  |  |  | > 100 µM | > 100 µM |  | inhibition at 10 µM ([2]; Vero): 76%
14 | CC(C)OC(=O)[C@H](C)NP(=O)(OC[C@H]1O[C@@H](n2ccc(N)nc2=O)C(F)(Cl)C1O)Oc1ccccc1 (stereo partly drawn) |  | > 100 µM | < 10 µM |  |  |  | > 100 µM | > 100 µM |  | inhibition at 10 µM ([2]; Vero): 80%
15 | CC1(F)C(O)[C@@H](CO)O[C@H]1n1ccc(N)nc1=O (stereo partly drawn) |  | > 100 µM |  |  |  |  |  |  |  | IC50 [2, 11]: ≤ 10 µM; inhibition at 10 µM ([2]; Vero cells, at 10 μM): 65%; IC50 [4]: > 100 µM; IC50 ([6]; CEM lymphoblastoid cells): > 100 µM; IC50 ([7]; PHA-stimulated human PBM cells): > 100 µM
16 | C[C@@H]1C[C@@H]([C@H](O)CC2CC(=O)NC(=O)C2)C(=O)[C@@H](C)C1 |  | 0.2 µM |  |  |  |  | 0.2 µM | 0.9 µM |  | IC50 [4]: 0.3 µM
17 | CC1(O)C(O)[C@@H](CO)O[C@H]1n1cc(F)c2c(N)ncnc21 (stereo in doubt) |  |  |  |  |  |  |  |  |  | inhibition at 0.01 µM (Zika virus): 21%; inhibition at 0.1 µM (Zika virus): 59%; inhibition at 1 µM (Zika virus): 73%; inhibition at 10 µM (Zika virus): 83%
18 | CC1(O)C(O)[C@@H](CO)O[C@H]1n1cc(F)c2c(N)ncnc21 (stereo partly drawn) [drawing 83] |  |  |  |  |  |  |  |  |  | EC50 (DENV-2 [9]): 2600 nM; EC50 (DENV-2 [10]): 8.6 µM
19 | O=c1nc(NO)ccn1[C@@H]1O[C@H](CO)C(O)C1O (stereo partly drawn) [drawing 85] |  |  |  |  |  |  |  |  |  | inhibition at 0.01 µM (Zika virus): 0%; inhibition at 0.1 µM (Zika virus): 5%; inhibition at 1 µM (Zika virus): 35%; inhibition at 10 µM (Zika virus): 57%
20 | CC1(O)C(O)[C@@H](CO)O[C@H]1n1cc(F)c2c(N)ncnc21 (stereo partly drawn) [drawing 91] | 17.5 µM | > 100 µM |  |  |  |  |  |  |  | IC50 [2, 11]: 5.1 µM; IC50 ([5]; H251 cells, MOI=0.5, five days): 6.1 µM; IC50 ([6]; CEM lymphoblastoid cells): 33.6 µM; IC50 ([7]; PHA-stimulated human PBM cells): 83.7 µM; IC50 ([8]; Huh7 cells, MOI=0.5, five days): 1.7 µM
21 | O=C(O)c1cc(/N=N/c2ccc(S(=O)(=O)Nc3ccccn3)cc2)ccc1O [drawing 106] |  | > 100 µM |  |  |  |  |  |  |  | IC50 [4]: > 100 µM; IC50 ([6]; CEM lymphoblastoid cells): > 100 µM; IC50 ([7]; PHA-stimulated human PBM cells): > 100 µM
22 | O=c1nc(NO)ccn1[C@@H]1O[C@H](CO)C(O)C1O (stereo partly drawn) [drawing 107] |  | 7.7 µM |  |  |  |  |  |  |  | IC50 [2, 11]: 3.2 µM; IC50 ([5]; H251 cells, MOI=0.5, five days): 4.3 µM; IC50 ([6]; CEM lymphoblastoid cells): 2.5 µM; IC50 ([7]; PHA-stimulated human PBM cells): 30.6 µM; IC50 ([8]; Huh7 cells, MOI=0.5, five days): 5.1 µM

Source: patent US11963972B2, “Antiviral agents and nucleoside analogs for treatment of Zika virus” (priority 2016, dated 2024)
